Target: ROCK2 (Homo sapiens (Human), UniProt O75116)
Experiment: ROCK assay (Caliper LABCHIP peptide phosphorylation, 5 μM ATP)
Assay type: biochemical
Conditions: 1.5 μM peptide substrate

Sequence of ROCK2 (O75116 whole entry, species assumed): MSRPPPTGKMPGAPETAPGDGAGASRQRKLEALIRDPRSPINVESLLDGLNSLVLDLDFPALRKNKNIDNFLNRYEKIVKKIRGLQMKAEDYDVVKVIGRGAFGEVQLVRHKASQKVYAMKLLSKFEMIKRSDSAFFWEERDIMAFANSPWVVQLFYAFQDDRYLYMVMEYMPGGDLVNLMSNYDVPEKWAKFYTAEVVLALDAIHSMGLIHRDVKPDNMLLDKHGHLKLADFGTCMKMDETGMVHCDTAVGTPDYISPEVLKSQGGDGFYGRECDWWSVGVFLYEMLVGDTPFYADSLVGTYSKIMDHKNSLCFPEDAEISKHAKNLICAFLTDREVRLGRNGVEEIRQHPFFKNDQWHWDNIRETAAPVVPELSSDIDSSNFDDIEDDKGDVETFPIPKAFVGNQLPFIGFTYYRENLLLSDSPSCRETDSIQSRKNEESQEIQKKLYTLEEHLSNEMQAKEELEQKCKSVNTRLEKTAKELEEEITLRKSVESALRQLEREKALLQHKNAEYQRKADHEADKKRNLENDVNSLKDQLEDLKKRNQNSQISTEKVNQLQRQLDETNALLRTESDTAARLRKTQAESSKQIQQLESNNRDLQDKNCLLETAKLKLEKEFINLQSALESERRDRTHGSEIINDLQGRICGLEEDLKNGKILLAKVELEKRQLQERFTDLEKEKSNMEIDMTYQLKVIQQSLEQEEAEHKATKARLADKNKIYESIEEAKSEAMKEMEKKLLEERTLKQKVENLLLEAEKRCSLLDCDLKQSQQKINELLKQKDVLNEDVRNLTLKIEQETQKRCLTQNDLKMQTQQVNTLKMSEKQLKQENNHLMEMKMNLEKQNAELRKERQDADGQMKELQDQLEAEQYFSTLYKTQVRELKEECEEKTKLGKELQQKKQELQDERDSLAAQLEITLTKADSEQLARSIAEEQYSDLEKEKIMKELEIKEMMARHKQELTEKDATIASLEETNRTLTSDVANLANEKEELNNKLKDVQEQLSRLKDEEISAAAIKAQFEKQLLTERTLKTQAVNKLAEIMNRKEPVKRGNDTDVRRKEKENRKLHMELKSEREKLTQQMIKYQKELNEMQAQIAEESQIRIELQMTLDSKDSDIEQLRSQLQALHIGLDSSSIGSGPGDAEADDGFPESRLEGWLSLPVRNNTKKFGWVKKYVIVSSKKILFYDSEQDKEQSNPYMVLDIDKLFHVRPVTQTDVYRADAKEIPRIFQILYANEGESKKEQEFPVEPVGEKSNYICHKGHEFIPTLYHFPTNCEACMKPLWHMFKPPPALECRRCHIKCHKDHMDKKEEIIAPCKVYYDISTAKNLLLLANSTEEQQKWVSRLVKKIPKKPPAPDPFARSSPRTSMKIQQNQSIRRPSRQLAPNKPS

Compared with `O=C(Nc1ccc2c(c1)OCc1cnccc1-2)c1nc2ccccc2[nH]1` [Example I-73, N-(5H-chromeno[3,4-c]pyridin-8-yl)-1H-benzo[d]imidazole-2-carboxamide], `O=C(Nc1ccc2c(c1)OCc1cnccc1-2)c1ccc2ccccc2c1` [Example I-61, N-(5H-chromeno[3,4-c]pyridin-8-yl)-2-naphthamide] is 7.6-fold higher in IC50: 619 nM for the first, 4720 nM for the second. The first is the more potent here.

First: O=C(CCCc1ccccc1)Nc1ccc2c(c1)OCc1cnccc1-2 [Example I-32, N-(5H-chromeno[3,4-c]pyridin-8-yl)-4-phenylbutanamide]
Second: N[C@H](CCc1ccccc1)C(=O)Nc1ccc2c(c1)OCc1cnccc1-2 [Example I-4, (R)-2-amino-N-(5H-chromeno[3,4-c]pyridin-8-yl)-4-phenylbutanamide]
The IC50 of the first is 5.3-fold higher: 682 nM for the first, 128 nM for the second.

`COc1cccc(C(=O)Nc2ccc3c(c2)OCc2cnccc2-3)c1` [Example I-66, N-(5H-chromeno[3,4-c]pyridin-8-yl)-3-methoxybenzamide] and `COc1ccc(C(=O)Nc2ccc3c(c2)OCc2cnccc2-3)cc1` [Example I-55, N-(5H-chromeno[3,4-c]pyridin-8-yl)-4-methoxybenzamide] are within 1.5-fold of each other in IC50: 2590 nM for the first, 3250 nM for the second.

Going from `COc1cccc(CCC(=O)Nc2ccc3c(c2)[nH]c2cnccc23)c1` [Example IV-1, 3-(3-Methoxyphenyl)-N-(9H-pyrido[3,4-b]indol-7-yl)propanamide] to `O=C(Cc1ccccc1)Nc1ccc2c(c1)[nH]c1cnccc12` [Example IV-4, 2-Phenyl-N-(9H-pyrido[3,4-b]indol-7-yl)acetamide], the IC50 falls from 50.9 nM to 9.5 nM (5.4-fold). The second is the more potent here.

Compared with `O=C(Nc1ccc2c(c1)OCc1cnccc1-2)C(O)c1ccccc1` (stereo not drawn) [Example I-46, N-(5H-chromeno[3,4-c]pyridin-8-yl)-2-hydroxy-2-phenylacetamide], `Cc1ccccc1CC(=O)Nc1ccc2c(c1)OCc1cnccc1-2` [Example I-15, N-(5H-chromeno[3,4-c]pyridin-8-yl)-2-o-tolylacetamide] is 3.1-fold lower in IC50: 51.2 nM for the first, 16.7 nM for the second. The second is the more potent here.

Going from `O=C(Nc1ccc2c(c1)OCc1cnccc1-2)Nc1ccccc1Cl` [II-2, 1-(2-chlorophenyl)-3-(5H-chromeno[3,4-c]pyridin-8-yl) urea] to `O=C(Nc1cccc(Cl)c1)Nc1ccc2c(c1)OCc1cnccc1-2` [II-4, 1-(3-chlorophenyl)-3-(5H-chromeno[3,4-c]pyridin-8-yl) urea], the IC50 rises from 557 nM to 2370 nM (4.3-fold).

Compared with `O=C(Nc1ccc2c(c1)OCc1cnccc1-2)c1csc(-c2ccncc2)n1` [Example I-71, N-(5H-chromeno[3,4-c]pyridin-8-yl)-2-(pyridin-4-yl)thiazole-4-carboxamide], `O=C(Nc1ccc2c(c1)OCc1cnccc1-2)c1cnccn1` [Example I-30, N-(5H-chromeno[3,4-c]pyridin-8-yl) pyrazine-2-carboxamide] is 9.3-fold higher in IC50: 316 nM for the first, 2940 nM for the second.

`O=C(Nc1ccc2c(c1)OCc1cnccc1-2)c1csnn1` [Example I-41, N-(5H-chromeno[3,4-c]pyridin-8-yl)-1,2,3-thiadiazole-4-carboxamide] and `O=C(Nc1ccc2c(c1)OCc1cnccc1-2)c1cncnc1` [Example I-45, N-(5H-chromeno[3,4-c]pyridin-8-yl) pyrimidine-5-carboxamide] are within 1.5-fold of each other in IC50: 2760 nM for the first, 1980 nM for the second.

First: O=C(Cc1cccc(Cl)c1)Nc1ccc2c(c1)OCc1cnccc1-2 [Example I-11, 2-(3-chlorophenyl)-N-(5H-chromeno [3,4-c]pyridin-8-yl) acetamide]
Second: O=C(Cc1ccc(Cl)cc1)Nc1ccc2c(c1)OCc1cnccc1-2 [Example I-13, 2-(4-chlorophenyl)-N-(5H-chromeno [3,4-c]pyridin-8-yl) acetamide]
The IC50 of the first is 5.4-fold lower: 24.8 nM for the first, 134 nM for the second.

First: O=C(Cc1cccc(C(F)(F)F)c1)Nc1ccc2c(c1)OCc1cnccc1-2 [Example I-22, N-(5H-chromeno[3,4-c]pyridin-8-yl)-2-(3-(trifluoromethyl)phenyl)acetamide]
Second: O=C(Cc1ccc(C(F)(F)F)cc1)Nc1ccc2c(c1)OCc1cnccc1-2 [Example I-69, N-(5H-chromeno[3,4-c]pyridin-8-yl)-2-(4-(trifluoromethyl)phenyl)acetamide]
The IC50 of the first is 6.8-fold lower: 159 nM for the first, 1080 nM for the second. The first is the more potent here.

Compared with `O=C(Cc1ccncc1)Nc1ccc2c(c1)OCc1cnccc1-2` [Example I-34, N-(5H-chromeno[3,4-c]pyridin-8-yl)-2-(pyridin-4-yl) acetamide], `O=C(Cc1ccccn1)Nc1ccc2c(c1)OCc1cnccc1-2` [Example I-33, N-(5H-chromeno[3,4-c]pyridin-8-yl)-2-(pyridin-2-yl) acetamide] is 1.8-fold higher in IC50: 207 nM for the first, 367 nM for the second.

First: O=C(Cc1ccc(Cl)cc1Cl)Nc1ccc2c(c1)OCc1cnccc1-2 [Example I-14, N-(5H-chromeno [3,4-c]pyridin-8-yl)-2-(2,4-dichlorophenyl) acetamide]
Second: O=C(Cc1c(Cl)cccc1Cl)Nc1ccc2c(c1)OCc1cnccc1-2 [Example I-21, N-(5H-chromeno[3,4-c]pyridin-8-yl)-2-(2,6-dichlorophenyl) acetamide]
The IC50 of the first is 3-fold lower: 54.4 nM for the first, 161 nM for the second. The first is the more potent here.

`O=C(Nc1cccnc1)Nc1ccc2c(c1)OCc1cnccc1-2` [II-5, 1-(5H-chromeno[3,4-c]pyridin-8-yl)-3-(pyridin-3-yl)urea] and `O=C(Cc1cnccn1)Nc1ccc2c(c1)OCc1cnccc1-2` [Example I-49, N-(5H-chromeno[3,4-c]pyridin-8-yl)-2-(pyrazin-2-yl) acetamide] are within 1.5-fold of each other in IC50: 1420 nM for the first, 1250 nM for the second.

First: O=C(NCCc1ccccc1F)Nc1ccc2c(c1)OCc1cnccc1-2 [II-7, 1-(5H-chromeno[3,4-c]pyridin-8-yl)-3-(2-fluorophenethyl)urea]
Second: O=C(Nc1ccc2c(c1)OCc1cnccc1-2)N1CCc2ccccc21 [Example II-1, N-(5H-Chromeno[3,4-c]pyridin-8-yl)indoline-1-carboxamide]
The IC50 of the first is 1.7-fold lower: 233 nM for the first, 387 nM for the second.

Going from `COc1ccc(CC(=O)Nc2ccc3c(c2)OCc2cnccc2-3)cc1` [Example I-31, N-(5H-chromeno[3,4-c]pyridin-8-yl)-2-(4-methoxyphenyl) acetamide] to `Cc1cc(C)cc(CC(=O)Nc2ccc3c(c2)OCc2cnccc2-3)c1` [Example I-16, N-(5H-chromeno[3,4-c]pyridin-8-yl)-2-(3,5-dimethylphenyl) acetamide], the IC50 falls from 497 nM to 110 nM (4.5-fold).

`CS(=O)(=O)c1ccc(C(=O)Nc2ccc3c(c2)OCc2cnccc2-3)cc1` [Example I-29, N-(5H-chromeno[3,4-c]pyridin-8-yl)-4-(methylsulfonyl) benzamide] and `CS(=O)(=O)c1cccc(C(=O)Nc2ccc3c(c2)OCc2cnccc2-3)c1` [Example I-43, N-(5H-chromeno[3,4-c]pyridin-8-yl)-3-(methylsulfonyl) benzamide] are within 1.5-fold of each other in IC50: 2050 nM for the first, 2190 nM for the second.

`COC(=O)c1cccc(C(=O)Nc2ccc3c(c2)OCc2cnccc2-3)c1` [Example I-38, methyl 3-(5H-chromeno[3,4-c]pyridin-8-ylcarbamoyl)benzoate] and `O=C(Nc1ccc2c(c1)OCc1cnccc1-2)c1ccccc1-c1ccccc1` [Example I-65, N-(5H-chromeno[3,4-c]pyridin-8-yl) biphenyl-2-carboxamide] are within 1.5-fold of each other in IC50: 847 nM for the first, 1220 nM for the second.

`O=C(NCC(c1ccccc1)c1ccccc1)Nc1ccc2c(c1)OCc1cnccc1-2` [II-8, 1-(5H-chromeno[3,4-c]pyridin-8-yl)-3-(2,2-diphenylethyl)urea] and `O=C(CCn1ccnc1)Nc1ccc2c(c1)OCc1cnccc1-2` [Example I-48, N-(5H-chromeno[3,4-c]pyridin-8-yl)-3-(1H-imidazol-1-yl) propanamide] are within 1.5-fold of each other in IC50: 910 nM for the first, 992 nM for the second.

Source: patent publication US9663529B2, “Tricyclic pyrido-carboxamide derivatives as rock inhibitors” (BRISTOL-MYERS SQUIBB COMPANY, priority 2013, dated 2017)
